Experiments:
Type in all cases: functional
[1] = system: Pyricularia oryzae; assay: Fungicidal activity against Magnaporthe oryzae assessed as rice blast disease control at 31.3 ppm foliar application for 24 hr before inoculation at 27 +/- 2 degC measured after 5 days by preventive manner
[2] = system: Podosphaera fuliginea; assay: Fungicidal activity against Podosphaera fuliginea assessed as cucumber powdery mildew control at 2 ppm foliar application 24 hr before inoculation at 23 +/- 2 degC by preventive manner
[3] = system: Botrytis cinerea; assay: Fungicidal activity against Botryotinia fuckeliana assessed as cucumber gray mold disease control at 2 ppm foliar application […] at 22 +/- 2 degC by preventive manner
[4] = system: Blumeria graminis f. sp. tritici; assay: Fungicidal activity against Blumeria graminis f. sp. tritici assessed as wheat powdery mildew disease control at 2 ppm foliar application for 48 hr before inoculation by preventive manner
[5] = system: Thanatephorus cucumeris; assay: Fungicidal activity against Thanatephorus cucumeris assessed as rice sheath blight disease control at 125 ppm foliar application for 24 hr before inoculation at 26 +/- 2 degC measured after 5 days by preventive manner
[6] = system: Pseudoperonospora cubensis; assay: Fungicidal activity against Pseudoperonospora cubensis assessed as cucumber downy mildew disease control at 31.3 ppm foliar application 24 hr before inoculation onto the abaxial(untreated) surface of leaf by preventive manner
[7] = system: Pseudoperonospora cubensis; assay: Fungicidal activity against Pseudoperonospora cubensis assessed as cucumber downy mildew disease control at 7.8 ppm foliar application 24 hr before inoculation onto the adaxial(treated) surface of leaf by preventive manner
[8] = system: Thanatephorus cucumeris; assay: Fungicidal activity against Thanatephorus cucumeris assessed as rice sheath blight disease control at 7.8 ppm foliar application for 24 hr before inoculation at 26 +/- 2 degC measured after 5 days by preventive manner
[9] = system: Pyricularia oryzae; assay: Fungicidal activity against Magnaporthe oryzae assessed as rice blast disease control at 7.8 ppm foliar application for 24 hr before inoculation at 27 +/- 2 degC measured after 5 days by preventive manner
[10] = system: Pseudoperonospora cubensis; assay: Fungicidal activity against Pseudoperonospora cubensis assessed as cucumber downy mildew disease control at 125 ppm foliar application 24 hr before inoculation onto the abaxial(untreated) surface of leaf by preventive manner
[11] = system: Pseudoperonospora cubensis; assay: Fungicidal activity against Pseudoperonospora cubensis assessed as cucumber downy mildew disease control at 2 ppm foliar application 24 hr before inoculation onto the adaxial(treated) surface of leaf by preventive manner
[12] = system: Podosphaera fuliginea; assay: Fungicidal activity against Podosphaera fuliginea assessed as cucumber powdery mildew control at 7.8 ppm foliar application 24 hr before inoculation at 23 +/- 2 degC by preventive manner
[13] = system: Botrytis cinerea; assay: Fungicidal activity against Botryotinia fuckeliana assessed as cucumber gray mold disease control at 7.8 ppm foliar application […] at 22 +/- 2 degC by preventive manner
[14] = system: Pseudoperonospora cubensis; assay: Fungicidal activity against Pseudoperonospora cubensis assessed as cucumber downy mildew disease control at 7.8 ppm foliar application 24 hr before inoculation onto the abaxial(untreated) surface of leaf by preventive manner
[15] = system: Pyricularia oryzae; assay: Fungicidal activity against Magnaporthe oryzae assessed as rice blast disease control at 125 ppm foliar application for 24 hr before inoculation at 27 +/- 2 degC measured after 5 days by preventive manner
[16] = system: Podosphaera fuliginea; assay: Fungicidal activity against Podosphaera fuliginea assessed as cucumber powdery mildew control at 125 ppm foliar application 24 hr before inoculation at 23 +/- 2 degC by preventive manner
[17] = system: Blumeria graminis f. sp. tritici; assay: Fungicidal activity against Blumeria graminis f. sp. tritici assessed as wheat powdery mildew disease control at 31.3 ppm foliar application for 48 hr before inoculation by preventive manner
[18] = system: Pseudoperonospora cubensis; assay: Fungicidal activity against Pseudoperonospora cubensis assessed as cucumber downy mildew disease control at 31.3 ppm foliar application 24 hr before inoculation onto the adaxial(treated) surface of leaf by preventive manner
[19] = system: Botrytis cinerea; assay: Fungicidal activity against Botryotinia fuckeliana assessed as cucumber gray mold disease control at 31.3 ppm foliar application […] at 22 +/- 2 degC by preventive manner
[20] = system: Thanatephorus cucumeris; assay: Fungicidal activity against Thanatephorus cucumeris assessed as rice sheath blight disease control at 31.3 ppm foliar application for 24 hr before inoculation at 26 +/- 2 degC measured after 5 days by preventive manner
[21] = system: Pyricularia oryzae; assay: Fungicidal activity against Magnaporthe oryzae assessed as rice blast disease control at 2 ppm foliar application for 24 hr before inoculation at 27 +/- 2 degC measured after 5 days by preventive manner
[22] = system: Pyricularia oryzae; assay: Fungicidal activity against Magnaporthe oryzae assessed as rice blast disease control at 125 ppm foliar application for 24 hr after inoculation at 27 +/- 2 degC measured after 5 days by curative manner
[23] = system: Blumeria graminis f. sp. tritici; assay: Fungicidal activity against Blumeria graminis f. sp. tritici assessed as wheat powdery mildew disease control at 125 ppm foliar application for 48 hr after inoculation by curative manner
[24] = system: Podosphaera fuliginea; assay: Fungicidal activity against Podosphaera fuliginea assessed as cucumber powdery mildew control at 125 ppm foliar application 24 hr after inoculation at 23 +/- 2 degC by curative manner
[25] = system: Blumeria graminis f. sp. tritici; assay: Fungicidal activity against Blumeria graminis f. sp. tritici assessed as wheat powdery mildew disease control at 125 ppm foliar application for 48 hr before inoculation by preventive manner
[26] = system: Botrytis cinerea; assay: Fungicidal activity against Botryotinia fuckeliana assessed as cucumber gray mold disease control at 125 ppm foliar application […] at 22 +/- 2 degC by curative manner
[27] = system: Botrytis cinerea; assay: Fungicidal activity against Botryotinia fuckeliana assessed as cucumber gray mold disease control at 125 ppm foliar application […] at 22 +/- 2 degC by preventive manner
[28] = system: Podosphaera fuliginea; assay: Fungicidal activity against Podosphaera fuliginea assessed as cucumber powdery mildew control at 31.3 ppm foliar application 24 hr before inoculation at 23 +/- 2 degC by preventive manner
[29] = system: Podosphaera fuliginea; assay: Fungicidal activity against Podosphaera fuliginea assessed as cucumber powdery mildew control at 7.8 ppm foliar application 24 hr after inoculation at 23 +/- 2 degC by curative manner
[30] = system: Blumeria graminis f. sp. tritici; assay: Fungicidal activity against Blumeria graminis f. sp. tritici assessed as wheat powdery mildew disease control at 7.8 ppm foliar application 48 24 hr before inoculation by preventive manner

Structure (SMILES)	Activity [2]	Activity [3]	Activity [4]	Activity [5]	Activity [9]	Activity [10]	Activity [11]	Activity [14]	Activity [15]	Activity [16]	also measured
CNC(=O)/C(=N/OC)c1ccccc1COc1ccc(Cl)cc1Cl	90%	90%	90%	<90%							Activity [1]: 90%; Activity [6]: 90%; Activity [7]: 90%
CNC(=O)/C(=N/OC)c1ccccc1COc1cc(C)cc(C)c1C	90%	90%	90%		90%	90%	90%				Activity [8]: 90%
CNC(=O)/C(=N/OC)c1ccccc1COc1ccc(Cl)c(C)c1			90%	<90%	90%		90%	90%			Activity [12]: 90%; Activity [13]: 90%
CNC(=O)/C(=N/OC)c1ccccc1COc1c(Cl)cc(Cl)cc1Cl				<90%		<90%			90%	90%	Activity [17]: 90%; Activity [18]: 90%; Activity [19]: 90%
CNC(=O)/C(=N/OC)c1ccccc1COc1ccc(Cl)cc1C	90%	90%	90%		90%		90%	90%			Activity [20]: 90%
CNC(=O)/C(=N/OC)c1ccccc1COc1cccc(C(F)(F)F)c1			90%	90%	90%			90%			Activity [12]: 90%; Activity [13]: 90%; Activity [7]: 90%
CNC(=O)/C(=N/OC)c1ccccc1COc1ccccc1C	90%		90%			90%	90%				Activity [21]: 90%; Activity [13]: 90%; Activity [20]: 90%
CNC(=O)/C(=N\OC)c1ccccc1COc1ccc(Cl)cc1									<90%	90%	Activity [22]: <90%; Activity [23]: <90%; Activity [24]: <90%; Activity [25]: 90%; Activity [26]: <90%; Activity [27]: <90%
CNC(=O)/C(=N/OC)c1ccccc1COc1cccc(C)c1C				90%		90%	90%				Activity [21]: 90%; Activity [28]: 90%; Activity [17]: 90%; Activity [19]: 90%
CO/N=C(/C(=O)NOC)c1ccccc1COc1cc(C)ccc1C									90%	<90%	Activity [22]: <90%; Activity [29]: 90%; Activity [26]: <90%; Activity [27]: 90%
CO/N=C(/C(=O)N(C)C)c1ccccc1COc1cc(C)ccc1C											Activity [22]: 90%; Activity [1]: 90%; Activity [28]: 90%; Activity [29]: 90%; Activity [26]: <90%; Activity [27]: 90%
CNC(=O)/C(=N/OC)c1ccccc1COc1cccc(-c2ccccc2)c1	90%	90%					90%	90%			Activity [21]: 90%; Activity [30]: 90%; Activity [20]: 90%
CNC(=O)/C(=N/OC)c1ccccc1COc1cccc(N(C)C)c1				<90%		<90%			90%	<90%	Activity [25]: <90%; Activity [18]: 90%; Activity [19]: 90%

From ChEMBL document CHEMBL3046469, “Fungicidal Activities of 2-(Substituted Phenoxymethyl)phenyl-2-methoxyiminoacaetamide Derivatives” (1998)
